Data as given in patent US6689779B2, “Oxazolidinone derivatives and a process for the preparation thereof” (priority 2000, dated 2004).
≈ marks a conversion by molar mass, not a printed value.

How the values were obtained:
Type in all cases: cell-based
[1] = tested on: methicillin resistant Staphylococcus aureus; experiment: Assay for in vitro antibacterial activity, agar dilution method: MRSA; conditions: for Antibacterial Activity (MIC50) MRSA: agar dilution method, methicillin resistant Staphylococcus aureus
[2] = tested on: vancomycin resistant Enterococci; experiment: Assay for in vitro antibacterial activity, agar dilution method: VRE; conditions: for Antibacterial Activity (MIC50) VRE: agar dilution method, vancomycin resistant Enterococci
H. Influenzae = experiment: Assay for in vitro antibacterial activity, agar dilution method: H. Influenzae
[3] = tested on: ATCC 27294: Vancomycine Mycobacterium tuberculosis; experiment: Assay for in vitro antibacterial activity, agar dilution method: ATCC 27294; conditions: for Antibacterial Activity (MIC50) ATCC 27294: agar dilution method, Vancomycine Mycobacterium tuberculosis; for MIC50: Mycobacterium tuberculosis, ATCC27294, read-out: Antibacterial Activity (MIC50) ATCC 27294

SMILES	Antibacterial Activity (MIC50) MRSA [1]	Antibacterial Activity (MIC50) VRE [2]	Antibacterial Activity (MIC50) Influenzae (H. Influenzae)	Antibacterial Activity (MIC50) ATCC 27294 [3]	MIC50 [3]	MIC50 ([1]; Staphylococcus aureus, MRSA, read-out: Antibacterial Activity (MIC50) MRSA)	MIC50 ([2]; Enterococcus, VRE, read-out: Antibacterial Activity (MIC50) VRE)	MIC50 (H. Influenzae; Haemophilus influenzae)
CC(=O)NC[C@H]1CN(c2ccc(-c3ccc(-c4noc(C)n4)nc3)c(F)c2)C(=O)O1 [Exmp. 138, (S)-[N-3-(4-(2-(5-methyl-(1,2,4)-oxadiazol-3-yl)pyridin-5-yl)-3-fluorophenyl)-2-oxo-5-oxazolidinyl]methyl acetamide]	0.78 µg/mL	0.39 µg/mL	3.13 µg/mL	0.1 µg/mL	–	–	–	–
CC(=O)NC[C@H]1CN(c2ccc(-c3ccc(-c4nnn[nH]4)nc3)c(F)c2)C(=O)O1 [Exmp. 152, (S)-[N-3-(4-(2-(5-Tetrazolyl)-5-pyridinyl)-3-fluorophenyl)-2-oxo-5-oxazolidinyl]methyl Acetamide]	>25 µg/mL	>25 µg/mL	>25 µg/mL	>25 µg/mL	–	–	–	–
CC(=O)NC[C@H]1CN(c2ccc(-c3ccc(-n4cncn4)nc3)c(F)c2)C(=O)O1 [Exmp. 129, (S)-[N-3-(4-(2-(1,2,4-triazol-1-yl)pyridin-5-yl)-3-fluorophenyl)-2-oxo-5-oxazolidinyl]methyl acetamide]	0.39 µg/mL	0.2 µg/mL	6.25 µg/mL	0.1 µg/mL	–	–	–	–
N[C@@H]1CON=C1O [Cycloserine, reference compound]	–	–	–	–	6.25 µg/mL (≈ 61.2 µM)	–	–	–
CO[C@H]1/C=C/O[C@@]2(C)Oc3c(C)c(O)c4c(O)c(c(/C=N/N5CCN(C)CC5)c(O)c4c3C2=O)NC(=O)/C(C)=C\C=C\[C@H](C)[C@H](O)[C@@H](C)[C@@H](O)[C@@H](C)[C@H](OC(C)=O)[C@@H]1C [Rifampin, reference compound]	–	–	–	–	0.2 µg/mL (≈ 0.243 µM)	–	–	–
CC(=O)NC[C@H]1CN(c2ccc(N3CCOCC3)c(F)c2)C(=O)O1 [Example U-100766, reference compound]	–	–	–	–	1.56 µg/mL (≈ 4.62 µM)	3.13 µg/mL (≈ 9.28 µM)	1.56 µg/mL (≈ 4.62 µM)	25 µg/mL (≈ 74.1 µM)
CC(=O)NC[C@H]1CN(c2ccc(-c3ccc(-c4nnn(C)n4)nc3)c(F)c2)C(=O)O1 [Exmp. 140, (S)-[N-3-(4-(2-(2-methyl-5-tetrazolyl)-pyridin-5-yl)-3-fluorophenyl)-2-oxo-5-oxazolidinyl]methyl acetamide]	0.78 µg/mL	0.2 µg/mL	12.5 µg/mL	0.1 µg/mL	–	–	–	–
CC(=O)NC[C@H]1CN(c2ccc(-c3ccc(-c4nnc(C)o4)nc3)c(F)c2)C(=O)O1 [Exmp. 137, (S)-[N-3-(4-(2-(5-methyl-(1,3,4)-oxadiazol-2-yl)-pyridin-5-yl)-3-fluorophenyl)-2-oxo-5-oxazolidinyl]methyl acetamide]	0.39 µg/mL	0.2 µg/mL	3.13 µg/mL	0.1 µg/mL	–	–	–	–
CC(=O)NC[C@H]1CN(c2ccc(-c3ccc(-n4cnnn4)nc3)c(F)c2)C(=O)O1 [Exmp. 136, (S)-(N-3-(4-(2-(1-tetrazolyl)-pyridin-5-yl)-3-fluorophenyl)-2-oxo-5-oxazolidinyl)methyl acetamide]	0.78 µg/mL	0.2 µg/mL	12.5 µg/mL	0.1 µg/mL	–	–	–	–
CC(=O)NC[C@H]1CN(c2ccc(-c3ccc(N4CCOC4=O)nc3)c(F)c2)C(=O)O1 [Exmp. 143, (S)-[N-3-(4-(2-(2-oxo-(1,3)-oxazolidin-3-yl)-pyridin-5-yl)-3-fluorophenyl)-2-oxo-5-oxazolidinyl]methyl acetamide]	0.78 µg/mL	0.2 µg/mL	1.56 µg/mL	0.1 µg/mL	–	–	–	–
CC(=O)NC[C@H]1CN(c2ccc(-c3ccc(-c4nnnn4C)nc3)c(F)c2)C(=O)O1 [Exmp. 139, (S)-[N-3-(4-(2-(1-methyl-5-tetrazolyl)-pyridin-5-yl)-3-fluorophenyl)-2-oxo-5-oxazolidinyl]methyl acetamide]	0.78 µg/mL	0.2 µg/mL	3.13 µg/mL	0.1 µg/mL	–	–	–	–
